ChEMBL document CHEMBL1201862, “PubChem BioAssay data set” (2004)
Calls of active or inactive are those of the source.

Key:
[1] = molecular target: T1, fMet-Leu-Phe receptor (Homo sapiens, UniProt P21462); experiment: formyl peptide receptor binders – dose response (AID 519); type: functional
T1 sequence (P21462 whole entry): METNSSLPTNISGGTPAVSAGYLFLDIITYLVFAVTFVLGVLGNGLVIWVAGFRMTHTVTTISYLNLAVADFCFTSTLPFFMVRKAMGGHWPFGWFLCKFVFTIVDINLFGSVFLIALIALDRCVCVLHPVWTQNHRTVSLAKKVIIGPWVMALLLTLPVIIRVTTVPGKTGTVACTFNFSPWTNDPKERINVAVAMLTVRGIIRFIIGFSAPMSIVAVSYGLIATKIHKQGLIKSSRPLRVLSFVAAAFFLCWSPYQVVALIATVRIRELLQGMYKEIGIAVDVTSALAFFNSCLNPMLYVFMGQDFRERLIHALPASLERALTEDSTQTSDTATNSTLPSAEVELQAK

[2] = molecular target: T2, Heat shock factor protein 1 (Mus musculus, UniProt P38532); experiment: enhancement of HSF1-driven luciferase signal – cell-based, NIH3T3, luminescence, dose retest, confirmation (AID 435004); type: functional;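 also: stress induced by proteasome inhibitor MG132 added 30 min after compound; luciferase reporter driven by HSF1 response element in NIH3T3 cells; actives raise luminescence as potentiators of the MG132 stress response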
T2 sequence (P38532 whole entry): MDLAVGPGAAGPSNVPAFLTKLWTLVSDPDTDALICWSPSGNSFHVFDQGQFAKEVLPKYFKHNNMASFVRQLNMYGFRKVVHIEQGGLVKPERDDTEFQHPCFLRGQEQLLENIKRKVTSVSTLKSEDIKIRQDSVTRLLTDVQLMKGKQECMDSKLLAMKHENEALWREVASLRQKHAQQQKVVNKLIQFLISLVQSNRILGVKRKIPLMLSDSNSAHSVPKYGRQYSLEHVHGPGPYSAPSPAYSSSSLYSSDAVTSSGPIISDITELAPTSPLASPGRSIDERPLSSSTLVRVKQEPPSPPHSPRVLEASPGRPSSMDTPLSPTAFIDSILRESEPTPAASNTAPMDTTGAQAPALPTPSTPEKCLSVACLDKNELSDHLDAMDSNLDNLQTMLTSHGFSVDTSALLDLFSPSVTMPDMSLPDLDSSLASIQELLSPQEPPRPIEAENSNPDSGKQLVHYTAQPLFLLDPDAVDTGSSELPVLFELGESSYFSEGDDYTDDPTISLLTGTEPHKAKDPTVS

[3] = Luminescent dose response cell-based high throughput screening assay for inhibitors of the Janus kinase 2 mutant JAK2V617F. [Related pubchem assays: 1446 (Primary screen.), 1521 (Confirmation assay.), 1486 (Counter screen.)]; type: functional
[4] = OVCAR-3 cell viability loss – plate reader, dry powder samples, PAX8 inhibitor project, dose response (AID 743044); type: functional, cell-based
[5] = molecular target: Paired box protein Pax-8 (Homo sapiens, UniProt Q06710); experiment: PAX8 transcriptional activity inhibition in RMG-I – RMG-I cells, luciferase, cherry-pick, dose response (AID 687027); type: functional, cell-based;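 also: luciferase reporter driven by Pax8 target thyroperoxidase promoter measured by SteadyGlo luminescence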
Sequence of Paired box protein Pax-8 (Q06710 whole entry): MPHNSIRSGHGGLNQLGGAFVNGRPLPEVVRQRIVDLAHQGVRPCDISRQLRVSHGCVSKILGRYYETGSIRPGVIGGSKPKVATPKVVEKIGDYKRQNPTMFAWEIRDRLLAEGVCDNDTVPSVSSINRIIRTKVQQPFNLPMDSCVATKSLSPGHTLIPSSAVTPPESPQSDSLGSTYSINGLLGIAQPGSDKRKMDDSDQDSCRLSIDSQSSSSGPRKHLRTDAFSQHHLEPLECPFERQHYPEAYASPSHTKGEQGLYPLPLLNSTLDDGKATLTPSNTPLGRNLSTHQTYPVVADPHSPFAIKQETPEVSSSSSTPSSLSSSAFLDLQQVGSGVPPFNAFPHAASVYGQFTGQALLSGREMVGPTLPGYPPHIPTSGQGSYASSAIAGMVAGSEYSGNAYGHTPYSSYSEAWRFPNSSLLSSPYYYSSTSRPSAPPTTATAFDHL

[6] = OVCAR8 cell viability loss – plate reader, dry powder samples, PAX8 project, dose response (AID 743197); type: functional, cell-based; details: OVCAR-8
[7] = molecular target: Bifunctional protein GlmU (Mycobacterium tuberculosis, UniProt P9WMN3); experiment: Inhibitors of Mycobacterial Glucosamine-1-phosphate acetyl transferase (GlmU). Secondary screen.; design: species or system Mycobacterium tuberculosis H37Rv
Sequence of Bifunctional protein GlmU (P9WMN3 whole entry): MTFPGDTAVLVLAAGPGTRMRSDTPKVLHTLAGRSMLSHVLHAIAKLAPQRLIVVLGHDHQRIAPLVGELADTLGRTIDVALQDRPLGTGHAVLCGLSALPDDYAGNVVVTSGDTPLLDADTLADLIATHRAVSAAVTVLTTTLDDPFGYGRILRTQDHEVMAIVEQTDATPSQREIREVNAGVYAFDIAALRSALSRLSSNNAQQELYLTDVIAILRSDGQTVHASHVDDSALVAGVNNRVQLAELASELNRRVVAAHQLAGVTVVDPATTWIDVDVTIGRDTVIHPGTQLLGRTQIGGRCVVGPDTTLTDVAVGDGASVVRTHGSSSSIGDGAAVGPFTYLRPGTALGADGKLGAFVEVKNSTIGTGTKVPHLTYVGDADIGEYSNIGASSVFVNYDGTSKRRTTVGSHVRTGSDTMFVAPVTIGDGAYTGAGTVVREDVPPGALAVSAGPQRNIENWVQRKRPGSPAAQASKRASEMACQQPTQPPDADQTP

[8] = molecular target: 5-hydroxytryptamine receptor 1A (Homo sapiens, UniProt P08908); type: functional
Sequence of 5-hydroxytryptamine receptor 1A (P08908 whole entry): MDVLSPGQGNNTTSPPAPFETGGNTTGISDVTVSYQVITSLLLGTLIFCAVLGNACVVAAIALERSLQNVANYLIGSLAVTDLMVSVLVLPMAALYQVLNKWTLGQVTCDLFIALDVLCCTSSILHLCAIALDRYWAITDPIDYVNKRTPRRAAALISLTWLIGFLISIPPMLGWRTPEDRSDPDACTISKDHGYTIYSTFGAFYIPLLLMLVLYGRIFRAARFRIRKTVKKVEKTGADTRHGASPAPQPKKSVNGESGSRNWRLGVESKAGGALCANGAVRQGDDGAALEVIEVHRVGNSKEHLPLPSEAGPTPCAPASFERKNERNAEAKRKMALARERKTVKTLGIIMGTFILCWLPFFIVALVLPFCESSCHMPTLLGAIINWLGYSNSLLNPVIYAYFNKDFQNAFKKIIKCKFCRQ

[9] = molecular target: RNA-editing ligase 1, mitochondrial (Trypanosoma brucei brucei, UniProt P86926); experiment: inhibition of trypanosome RNA editing ligase – biochemical, fluorescence, Trypanosoma brucei, dose response (AID 1117295); type: functional
Sequence of RNA-editing ligase 1, mitochondrial (P86926 whole entry): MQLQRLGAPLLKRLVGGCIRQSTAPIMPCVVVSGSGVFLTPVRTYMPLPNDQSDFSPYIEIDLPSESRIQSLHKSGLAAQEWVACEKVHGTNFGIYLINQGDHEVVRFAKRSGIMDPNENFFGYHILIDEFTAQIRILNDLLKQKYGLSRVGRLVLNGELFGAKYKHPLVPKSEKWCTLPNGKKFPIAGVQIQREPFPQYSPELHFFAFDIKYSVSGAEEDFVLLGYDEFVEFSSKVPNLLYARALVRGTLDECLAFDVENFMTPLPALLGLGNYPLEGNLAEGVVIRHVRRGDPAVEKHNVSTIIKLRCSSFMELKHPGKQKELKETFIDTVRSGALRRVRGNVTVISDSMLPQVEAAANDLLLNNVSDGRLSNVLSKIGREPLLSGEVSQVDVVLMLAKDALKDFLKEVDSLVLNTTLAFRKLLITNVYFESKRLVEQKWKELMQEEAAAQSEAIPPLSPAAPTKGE

[10] = toxicity to human hepatoma HepG2 cells – cell-based, cherry-picked samples, cytotoxicity control, dose response (AID 1159577); type: functional
[11] = P. falciparum Dd2 growth inhibitors, dose response, SYBR Green, cherry-picked samples (AID 1159567); type: functional, cell-based
[12] = growth inhibition of PfATP4-mutant resistant parasites – NITD609-resistant line, SYBR Green, dry powder, dose response (AID 1159571); type: functional, cell-based;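 also: parasites synchronized at ring stage by sorbitol before testing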
[13] = growth inhibition of yeast DHODH-expressing 3D7 parasites – SYBR Green, dry powder samples, dose response (AID 1159570); type: functional, cell-based;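 also: parasite growth measured after 72 hours of compound exposure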
[14] = Dd2 malaria parasite growth inhibition potency – SYBR Green, dry powder samples, dose response (AID 1159566); type: functional, cell-based;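 also: potency for growth inhibition with lower SYBR green DNA signal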
[15] = cytotoxicity toward HCT116 cells – cell-based, CellTiter-Glo luminescence, IC50, dose response (AID 1117332); type: functional; details: HCT-116
[16] = cytotoxicity toward HT-29 cells – cell-based, CellTiter-Glo luminescence, IC50, dose response (AID 1117330); type: functional
[17] = HCT116 cell viability decrease, GSK3B pretreatment – CellTiter-Glo, IC50, dose response (AID 1117339); type: functional; details: HCT-116
[18] = cytotoxicity toward Colo320 cells – cell-based, CellTiter-Glo luminescence, IC50, dose response (AID 1117334); type: functional; details: COLO 320
[19] = CellTiter-Glo luminescence survival assay, SW480 colon tumor line, concentration-response curve, half-maximal inhibitory concentration (AID 1117338); type: functional
[20] = RKO cell viability reduction, dose response, CellTiter-Glo luminescence (AID 1117322); type: functional
[21] = SNU-C1 cell viability reduction, dose response, CellTiter-Glo luminescence (AID 1117323); type: functional, cell-based
[22] = Reduced DLD-1 viability, concentration-response, CellTiter-Glo luminescence (AID 1117352); type: functional

For Cc1cccc(OCC(=O)Nc2cc(C)ccc2O)c1, which Ki [1] is on record?
Its Ki is > 66.7 µM (inactive).

What about the EC50 [2] of the same compound?
The EC50 was 4.61 µM (active).

What about the IC50 [3] of the same compound?
Its IC50 is 0.676 µM (active).

Which AC50 [4] does the source give for C[C@H](CO)N1C[C@H](C)[C@@H](CN(C)Cc2ccc(Cl)c(Cl)c2)Oc2ccc(NS(=O)(=O)c3ccccc3)cc2CC1=O here?
The AC50 was 39.7 µM (active).

What about the AC50 [5] of the same compound?
Its AC50 is 9.45 µM (active).

And the AC50 [6]?
Its AC50 is 67.9 µM (active).

Which IC50 [7] does the source give for Nc1nonc1C(=O)N/N=C/c1ccc(-c2cccc(C(=O)O)c2)o1 here?
The IC50 was 188 µM (active).

Which EC50 [8] does the source give for CNCCc1c[nH]c2ccccc12 here?
Its EC50 is 5.1 µM (active).

With C=CCNC1=NC(c2ccccc2C(F)(F)F)C(C(=O)OC)=C(C)N1Cc1ccc(C(F)(F)F)cc1 (stereo not drawn) as the compound, how does the IC50 [9] read?
The IC50 was > 96.6 µM (inactive).

What does the source list for CCS(=O)(=O)N1CCCCN2[C@H](C1)[C@@H](c1ccc(C#Cc3ccccc3OC)cc1)[C@@H]2CO?
AC50 [10]: > 39 µM (inactive); AC50 [11]: 4.67 µM (active)

For COc1ccc2c3c(n(C)c2c1)[C@H](CO)NCC31CCN(Cc2ccc(Cl)cc2)CC1, which AC50 [10] is on record?
Its AC50 is 17.7 µM (active).

What about the AC50 [11] of the same compound?
Its AC50 is 0.504 µM (active).

For COc1ccc(-c2ccccc2[C@H]2[C@@H](C#N)N(C(=O)NC(C)C)[C@H]2CO)cc1, which AC50 [11] is on record?
Its AC50 is 2.04 µM (active).

And the AC50 [12]?
The AC50 was 4.81 µM (active).

And the AC50 [13]?
The AC50 was 2.01 µM (active).

What about the AC50 [14] of the same compound?
The AC50 was 2.21 µM (active).

For O=C(O)CCC(=O)OC[C@@H](NC(=O)C(Cl)Cl)[C@H](O)c1ccc([N+](=O)[O-])cc1 [CHLORAMPHENICOL SODIUM SUCCINATE], which IC50 [15] is on record?
Its IC50 is > 20 µM (inactive).

What about the IC50 [16] of the same compound?
Its IC50 is > 20 µM (inactive).

And the IC50 [17]?
Its IC50 is > 20 µM (inactive).

What about the IC50 [18] of the same compound?
The IC50 was > 20 µM (inactive).

What about the IC50 [19] of the same compound?
Its IC50 is > 20 µM (inactive).

And the IC50 [20]?
The IC50 was > 20 µM (inactive).

What about the IC50 [21] of the same compound?
Its IC50 is > 20 µM (inactive).

What about the IC50 [22] of the same compound?
The IC50 was > 20 µM (inactive).

Which results are given for CCCn1cnc2c1c(=O)n(CCCCC(C)=O)c(=O)n2C [PROPENTOFYLLINE]?
IC50 [15]: > 20 µM (inactive); IC50 [16]: > 20 µM (inactive); IC50 [17]: > 20 µM (inactive); IC50 [18]: > 20 µM (inactive); IC50 [19]: > 20 µM (inactive); IC50 [20]: > 20 µM (inactive); IC50 [21]: > 20 µM (inactive); IC50 [22]: > 20 µM (inactive)
